From patent US20100063047A1 (KALYPSYS, INC., priority 2008, published 2010)

Molecular target: T1, human H1 (Homo sapiens, UniProt P35367)
T1 construct: host or cells: CHO-K1, also expressing mitochondrion-targeted aequorin
Test: In vitro histamine H1 receptor cell-based aequorin bioluminescence antagonist assay
Settings: not given
Procedure: In vitro Histamine Receptor Cell-Based Assays
The cell-based assays utilize an aequorin dependent bioluminescence signal. Doubly-transfected, stable CHO—K1 cell lines expressing human H1 or H4, mitochondrion-targeted aequorin, and (H4 only) human G protein Gα16 are obtained from Perkin-Elmer. Cells are maintained in F12 (Ham's) growth medium, containing 10% (vol./vol.) fetal bovine serum, penicillin (100 IU/mL), streptomycin (0.1 mg/mL), zeocin (0.25 mg/mL) and geneticin (0.40 mg/mL). Cell media components are from Invitrogen, Inc. One day prior to assay, the growth medium is replaced with the same, excluding zeocin and geneticin.
For assay preparation, growth medium is aspirated, and cells are rinsed with calcium-free, magnesium-free phosphate-buffered saline, followed by two to three minute incubation in Versene (Invitrogen, Inc.) at 37° C. Assay medium (DMEM:F12 [50:50], phenol-red free, containing 1 mg/mL protease-free bovine serum albumin) is added to collect the released cells, which are then centrifuged. The cell pellet is re-suspended in assay medium, centrifuged once more, and re-suspended in assay medium to a final density of 5×10^6 cells/mL. Coelenterazine-h dye (500 μM in ethanol) is added to a final concentration of 5 μM, and mixed immediately. The conical tube containing the cells is then wrapped with foil to protect the light-sensitive dye. The cells are incubated for four hours further at room temperature (approximately 21° C.) with end-over-end rotation to keep them in suspension.
Just before assay, the dye-loaded cells are diluted to 0.75×10^6 cells/mL (H1 receptor) or 1.5×10^6 cells/mL (H4 receptor) with additional assay medium. Cells are dispensed to 1536 well micro-titer plates at 3 μL/well. To assay receptor antagonism, 60 nl of 100× concentration test compounds in 100% dimethyl sulfoxide (DMSO) are dispensed to the wells, one compound per well, by passive pin transfer, and the plates are incubated for 15 minutes at room temperature. […] The pipette dispenses 3 μL/well of agonist (histamine, at twice the final concentration, where final concentration is a previously determined EC80) in assay medium, with concurrent bioluminescence detection. Agonist activity of test compounds is excluded by separate assays that measure response to test compounds immediately, without added histamine agonist.
CCD image capture on the Lumilux includes a 5 second baseline read prior to agonist addition, and generally a 40 second read per plate after agonist addition. A decrease in bioluminescence signal (measured either as area-under-the-curve, or maximum signal amplitude minus minimum signal amplitude) correlates with receptor antagonism in a dose dependent manner. The negative control is DMSO lacking any test compound. For antagonist assays, the positive controls are diphenhydramine (2-Diphenylmethoxy-N,N-dimethylethylamine, 10 μM final concentration, H1 receptor) or JNJ7777120 (1-[(5-Chloro-1H-indol-2-yl)carbonyl]-4-methyl-piperazine, 10 μM final concentration, H4 receptor). Efficacy is measured as a percentage of positive control activity.

T1 sequence (P35367 whole entry): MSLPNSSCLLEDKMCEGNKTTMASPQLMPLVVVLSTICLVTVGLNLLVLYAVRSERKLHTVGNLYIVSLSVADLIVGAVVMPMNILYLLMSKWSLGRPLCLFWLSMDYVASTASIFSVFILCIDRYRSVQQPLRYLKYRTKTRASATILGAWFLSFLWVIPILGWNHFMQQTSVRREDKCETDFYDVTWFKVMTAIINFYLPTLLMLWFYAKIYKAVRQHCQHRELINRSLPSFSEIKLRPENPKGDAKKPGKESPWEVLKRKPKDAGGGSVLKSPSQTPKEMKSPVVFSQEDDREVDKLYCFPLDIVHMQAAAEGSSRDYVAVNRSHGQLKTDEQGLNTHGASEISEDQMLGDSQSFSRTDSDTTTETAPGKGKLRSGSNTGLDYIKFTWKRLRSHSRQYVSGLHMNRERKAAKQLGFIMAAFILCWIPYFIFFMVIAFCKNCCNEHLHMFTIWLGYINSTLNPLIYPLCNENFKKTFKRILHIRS

Row | Structure (SMILES) | EC50
1 | COc1ccc(OC)c(CCNc2ncnc3scc(C)c23)c1 [Example 169, N-[2-(2,5-dimethoxyphenyl)ethyl]-5-methylthieno[2,3-d]pyrimidin-4-amine] | > 10 µM

Same assay, conditions: CHO-K1 cells expressing human H1 and aequorin; histamine at EC80; read-out: H1 Antagonist EC50

Row | Structure (SMILES) | EC50
2 | Cc1csc2ncnc(N3CCN(C)CC3)c12 [Example 192, 1-methyl-4-{5-methylthieno[2,3-d]pyrimidin-4-yl}piperazine] | > 10 µM
3 | Cc1csc2ncnc(NCc3cc(F)cc(F)c3)c12 [Example 135, N-[(3,5-difluorophenyl)methyl]-5-methylthieno[2,3-d]pyrimidin-4-amine] | > 10 µM
4 | COc1ccc(CNc2ncnc3scc(C)c23)cc1OC [Example 160, N-[(3,4-dimethoxyphenyl)methyl]-5-methylthieno[2,3-d]pyrimidin-4-amine] | > 10 µM
5 | CCCCNc1ncnc2scc(-c3ccccc3)c12 [Example 47, N-butyl-5-phenylthieno[2,3-d]pyrimidin-4-amine] | > 10 µM
6 | COc1ccc(CNc2ncnc3scc(C)c23)cc1 [Example 124, N-[(4-methoxyphenyl)methyl]-5-methylthieno[2,3-d]pyrimidin-4-amine] | > 10 µM
7 | Cc1csc2ncnc(NCc3cccc(C(F)(F)F)c3)c12 [Example 165, 5-methyl-N-{[3-(trifluoromethyl)phenyl]methyl}thieno[2,3-d]pyrimidin-4-amine] | > 10 µM
8 | Cc1csc2ncnc(NC3CCC(C)CC3)c12 (centres unmarked) [Example 21, (4-Methylcyclohexyl)(5-methylthiopheno[3,2-e]pyrimidin-4-yl)amine] | > 10 µM
9 | Cc1csc2ncnc(N3CCc4ccccc4C3)c12 [Example 216, 2-{5-methylthieno[2,3-d]pyrimidin-4-yl}-1,2,3,4-tetrahydroisoquinoline] | > 10 µM
10 | Cc1csc2ncnc(N3CCN(c4ccccc4C#N)CC3)c12 [Example 252, 2-(4-{5-methylthieno[2,3-d]pyrimidin-4-yl}piperazin-1-yl)benzonitrile] | > 10 µM
11 | Cc1csc2ncnc(NCc3ccco3)c12 [Example 75, N-(furan-2-ylmethyl)-5-methylthieno[2,3-d]pyrimidin-4-amine] | > 10 µM
12 | Cc1csc2ncnc(NCCc3ccc(Cl)cc3)c12 [Example 46, N-[2-(4-chlorophenyl)ethyl]-5-methylthieno[2,3-d]pyrimidin-4-amine] | > 10 µM
13 | Cc1csc2ncnc(NCc3ccccc3)c12 [Example 83, N-benzyl-5-methylthieno[2,3-d]pyrimidin-4-amine] | > 10 µM
14 | Cc1csc2ncnc(NCCc3ccc(O)cc3)c12 [Example 121, 4-[2-({5-methylthieno[2,3-d]pyrimidin-4-yl}amino)ethyl]phenol] | > 10 µM
15 | Cc1csc2ncnc(NCc3ccc(Cl)cc3Cl)c12 [Example 167, N-[(2,4-dichlorophenyl)methyl]-5-methylthieno[2,3-d]pyrimidin-4-amine] | > 10 µM
16 | CC(=O)c1c(C)[nH]c(C(=O)CSc2ncnc3sc(C)c(C)c23)c1C [Example 304, 1-(4-acetyl-3,5-dimethyl-1H-pyrrol-2-yl)-2-(5,6-dimethylthieno[2,3-d]pyrimidin-4-ylthio)ethanone] | > 10 µM
17 | CC(C)(CNc1ncnc2sccc12)N1CCOCC1 [Example 308, N-(2-methyl-2-morpholinopropyl)thieno[2,3-d]pyrimidin-4-amine] | > 10 µM
18 | CC(Nc1ncnc2sccc12)c1ccccc1 (centres unmarked) [Example 311, N-(1-phenylethyl)thieno[2,3-d]pyrimidin-4-amine] | > 10 µM
19 | CCCCN(Cc1ccccc1)c1ncnc2scc(C)c12 [Example 235, N-benzyl-N-butyl-5-methylthieno[2,3-d]pyrimidin-4-amine] | > 10 µM
20 | Cc1csc2ncnc(N3CCN(CCN4CCOCC4)CC3)c12 [Example 269, 4-[2-(4-{5-methylthieno[2,3-d]pyrimidin-4-yl}piperazin-1-yl)ethyl]morpholine] | > 10 µM
21 | COc1ccccc1CNc1ncnc2scc(C)c12 [Example 123, N-[(2-methoxyphenyl)methyl]-5-methylthieno[2,3-d]pyrimidin-4-amine] | > 10 µM
22 | Cc1csc2ncnc(NC3CCC3)c12 [Example 58, N-cyclobutyl-5-methylthieno[2,3-d]pyrimidin-4-amine] | > 10 µM
23 | Cc1csc2ncnc(NCCOc3ccccc3)c12 [Example 122, 5-methyl-N-(2-phenoxyethyl)thieno[2,3-d]pyrimidin-4-amine] | > 10 µM
24 | Cc1csc2ncnc(NC(CO)C(C)C)c12 (centres unmarked) [Example 82, 3-methyl-2-({5-methylthieno[2,3-d]pyrimidin-4-yl}amino)butan-1-ol] | > 10 µM
25 | Cc1csc2ncnc(NCCCc3ccccc3)c12 [Example 117, 5-methyl-N-(3-phenylpropyl)thieno[2,3-d]pyrimidin-4-amine] | > 10 µM
26 | Cc1csc2ncnc(NC3CCc4ccccc43)c12 (centres unmarked) [Example 111, N-(2,3-dihydro-1H-inden-1-yl)-5-methylthieno[2,3-d]pyrimidin-4-amine] | > 10 µM
27 | Cc1csc2ncnc(NCc3ccc(C(C)(C)C)cc3)c12 [Example 156, N-[(4-tert-butylphenyl)methyl]-5-methylthieno[2,3-d]pyrimidin-4-amine] | > 10 µM
28 | Cc1csc2ncnc(NCc3ccc(F)cc3)c12 [Example 103, N-[(4-fluorophenyl)methyl]-5-methylthieno[2,3-d]pyrimidin-4-amine] | > 10 µM

Continued, values first:

Row | EC50 | Structure (SMILES)
29 | > 10 µM | CCN(Cc1ccccc1)c1ncnc2scc(C)c12 [Example 217, N-benzyl-N-ethyl-5-methylthieno[2,3-d]pyrimidin-4-amine]
30 | > 10 µM | Cc1csc2ncnc(NCCC(C)(C)C)c12 [Example 78, N-(3,3-dimethylbutyl)-5-methylthieno[2,3-d]pyrimidin-4-amine]
31 | > 10 µM | COc1ccccc1CCNc1ncnc2scc(C)c12 [Example 145, N-[2-(2-methoxyphenyl)ethyl]-5-methylthieno[2,3-d]pyrimidin-4-amine]
32 | > 10 µM | Cc1csc2ncnc(NC(C)CC(C)C)c12 (centres unmarked) [Example 79, 5-methyl-N-(4-methylpentan-2-yl)thieno[2,3-d]pyrimidin-4-amine]
33 | > 10 µM | Cc1csc2ncnc(N3CCN(c4ccc(Cl)cc4)CC3)c12 [Example 6, 4-(4-(4-chlorophenyl)piperazin-1-yl)-5-methylthieno[2,3-d]pyrimidine]
34 | > 10 µM | Cc1csc2ncnc(NCCc3ccccc3Cl)c12 [Example 148, N-[2-(2-chlorophenyl)ethyl]-5-methylthieno[2,3-d]pyrimidin-4-amine]
35 | > 10 µM | Cc1csc2ncnc(NCCc3c[nH]c4ccccc34)c12 [Example 155, N-[2-(1H-indol-3-yl)ethyl]-5-methylthieno[2,3-d]pyrimidin-4-amine]
36 | > 10 µM | Cc1csc2ncnc(NCc3ccccc3F)c12 [Example 104, N-[(2-fluorophenyl)methyl]-5-methylthieno[2,3-d]pyrimidin-4-amine]
37 | > 10 µM | Cc1csc2ncnc(NCCCN(C)c3ccccc3)c12 [Example 157, N-methyl-N-[3-({5-methylthieno[2,3-d]pyrimidin-4-yl}amino)propyl]aniline]
38 | > 10 µM | c1ccc(CCNc2ncnc3sccc23)cc1 [Example 290, N-phenethylthieno[2,3-d]pyrimidin-4-amine]
39 | > 10 µM | Cc1csc2c(NCCc3ccc(Cl)cc3)ncnc12 [Example 295, N-(4-chlorophenethyl)-7-methylthieno[3,2-d]pyrimidin-4-amine]
40 | > 10 µM | Cc1cccc(CCNc2ncnc3scc(C)c23)c1 [Example 20]
41 | > 10 µM | Cc1csc2ncnc(NCc3ccc4c(c3)OCO4)c12 [Example 141, N-(2H-1,3-benzodioxol-5-ylmethyl)-5-methylthieno[2,3-d]pyrimidin-4-amine]
42 | > 10 µM | CCCC(Nc1ncnc2sccc12)c1ccccc1 (centres unmarked) [Example 307, N-(1-phenylbutyl)thieno[2,3-d]pyrimidin-4-amine]
43 | > 10 µM | Cc1csc2ncnc(NCCc3ccc4c(c3)OCO4)c12 [Example 175, N-[2-(2H-1,3-benzodioxol-5-yl)ethyl]-5-methylthieno[2,3-d]pyrimidin-4-amine]
44 | > 10 µM | c1ccc(CC2CCN(c3ncnc4sccc34)CC2)cc1 [Example 302, 4-(4-benzylpiperidin-1-yl)thieno[2,3-d]pyrimidine]
